Measured values: article PMC11513842, “Development of an orally bioavailable CDK12/13 degrader and induction of synthetic lethality with AKT pathway inhibition” (Cell Reports Medicine, 2024)
Where two headings read alike, the source gives them in different places.

Legend:
[1] = Pharmacokinetic profile in Sprague Dawley rats; assay type: in vivo, rat; conditions: SD rats
[2] = test system: CDK12 and CDK13; conditions: VCaP cells
Method: After treatment of varying conditions, cell lysates were prepared using RIPA buffer (ThermoFisher Scientific) supplemented with cOmplete protease inhibitor cocktail tablets (Sigma-Aldrich). The Pierce BCA Protein Assay Kit ([…]) was used to determine the protein concentrations. Proteins with an equal amount from each sample were loaded on NuPAGE 3–8% Tris-Acetate or 4–12% Bis-Tris protein gels (ThermoFisher Scientific) and subsequently transferred to membranes, which were blocked using 5% nonfat milk. Following blocking at room temperature for 1 h, the membrane was further incubated with varying primary antibodies at 4°C overnight. HRP-conjugated secondary antibodies were used for detection, and membrane imaging was conducted using an Odyssey Fc Imager (LI-COR Biosciences).

[3] = test system: VCaP cells; assay: Cell viability assay (CellTiter-Glo, 5 days); assay type: cell-based, human
Method: Cells were seeded in 96-well plates and incubated at 37°C with 5% CO2 overnight. A series of compound dilutions were added into the cells. After 5 days incubation, cell proliferation was tested using the CellTiter-Glo assay (Promega) according to the manufacturer’s protocol. Luminescence was measured using the Infinite M1000 Pro plate reader (Tecan). Data analysis was conducted using GraphPad Prism software.

[4] = VCaP cell viability, linker optimization, Figure S4B, read-out: VCaP IC50

For O=C1CCC(N2C(=O)c3ccc(N4CCC(N5CCN(c6ccc(N(C(=O)NCc7ccccc7)C7CCC(Nc8ncc9ccccc9n8)CC7)cn6)CC5)CC4)cc3C2=O)C(=O)N1 (stereo not shown) [YJ1205], the “AUC(0-)” value ([1]; i.v. 2.5 mg/kg) was 10.61568 µg·h/mL, the “AUC(0-t)” value ([1]; i.v. 2.5 mg/kg) was 10.5196 µg·h/mL and the CL ([1]; i.v. 2.5 mg/kg) was 0.23584 L/h/kg. The Cmax ([1]; i.v. 2.5 mg/kg) was 4.14 µM, the T1/2 ([1]; i.v. 2.5 mg/kg) was 3.81 h and the Tmax ([1]; i.v. 2.5 mg/kg) was 0.08 h. The “AUC(0-)” value ([1]; oral 10 mg/kg) was 6.8428 µg·h/mL, the “AUC(0-t)” value ([1]; oral 10 mg/kg) was 6.679 µg·h/mL and the Cmax ([1]; oral 10 mg/kg) was 0.66 µM. For the same compound, the T1/2 ([1]; oral 10 mg/kg) was 4.2 h, the Tmax ([1]; oral 10 mg/kg) was 4.7 h and the “CDK12/13 degradation (immunoblot)” value [2] was “potent degradation effects”.

With CN1C(=O)CCC(N2C(=O)c3cccc(OCC(=O)N4CCN(c5ccc(N(C(=O)NCc6ccccc6)C6CCC(Nc7ncc8ccccc8n7)CC6)cc5)CC4)c3C2=O)C1=O (stereo not shown) [YJ1078] the IC50 ([3]; VCaP cells, 5 days, Figure S1E, read-out: IC50) was > 3 µM and the “CDK12/13 degradation (immunoblot)” value [2] was “did not affect target protein levels”.

In the case of O=C1CCC(N2C(=O)c3ccc(C=CC(=O)N4CCN(c5ccc(N(C(=O)NCc6ccccc6)C6CCC(Nc7ncc8ccccc8n7)CC6)cc5)CC4)cc3C2=O)C(=O)N1 (stereo not shown) [YJ1114], the IC50 [3, 4] is reported as 2.02 µM and the “CDK12/13 degradation (immunoblot)” value [2] is reported as “significantly decreased CDK12/13 degradation and cell viability”.

With O=C1CCC(N2C(=O)c3ccc(OCC(=O)N4CCN(c5ccc(N(C(=O)NCc6ccccc6)C6CCC(Nc7ncc8ccccc8n7)CC6)cc5)CC4)cc3C2=O)C(=O)N1 (stereo not shown) [YJ1090] the IC50 [3, 4] was 0.0939 µM and the “CDK12/13 degradation (immunoblot)” value [2] was “retained the CDK12/13 degradation abilities”.

With O=C1CCC(N2C(=O)c3ccc(N4CCC(N5CCN(c6ccc(N(C(=O)NCc7ccccc7)C7CCC(Nc8ncc9ccccc9n8)CC7)cc6)CC5)C4)cc3C2=O)C(=O)N1 (stereo not shown) [YJ1096] the IC50 [3, 4] was 0.0978 µM and the “CDK12/13 degradation (immunoblot)” value [2] was “significantly decreased CDK12/13 degradation and cell viability”.

With O=C1CCC(N2Cc3ccc(OCC(=O)N4CCN(c5ccc(N(C(=O)NCc6ccccc6)C6CCC(Nc7ncc8ccccc8n7)CC6)cc5)CC4)cc3C2=O)C(=O)N1 (stereo not shown) [YJ1094] the IC50 [3, 4] was 0.0252 µM and the “CDK12/13 degradation (immunoblot)” value [2] was “retained the CDK12/13 degradation abilities”.
